Measurements reported in ChEMBL document CHEMBL1134096, “Discovery and characterization of the potent, selective and orally bioavailable MMP inhibitor ABT-770” (Bioorg Med Chem Lett, 2001).
Where “and” joins values, the source holds several entries; their conditions need not be identical. Identical values can stand only once.

How the values were obtained:
[1] = target: 72 kDa type IV collagenase (Homo sapiens, UniProt P08253); assay: In vitro inhibition of human Matrix metalloprotease-2.
[2] = target: T1, Interstitial collagenase (Homo sapiens, UniProt P03956); assay: In vitro inhibition of human Matrix metalloprotease-1.
T1 sequence (P03956 whole entry): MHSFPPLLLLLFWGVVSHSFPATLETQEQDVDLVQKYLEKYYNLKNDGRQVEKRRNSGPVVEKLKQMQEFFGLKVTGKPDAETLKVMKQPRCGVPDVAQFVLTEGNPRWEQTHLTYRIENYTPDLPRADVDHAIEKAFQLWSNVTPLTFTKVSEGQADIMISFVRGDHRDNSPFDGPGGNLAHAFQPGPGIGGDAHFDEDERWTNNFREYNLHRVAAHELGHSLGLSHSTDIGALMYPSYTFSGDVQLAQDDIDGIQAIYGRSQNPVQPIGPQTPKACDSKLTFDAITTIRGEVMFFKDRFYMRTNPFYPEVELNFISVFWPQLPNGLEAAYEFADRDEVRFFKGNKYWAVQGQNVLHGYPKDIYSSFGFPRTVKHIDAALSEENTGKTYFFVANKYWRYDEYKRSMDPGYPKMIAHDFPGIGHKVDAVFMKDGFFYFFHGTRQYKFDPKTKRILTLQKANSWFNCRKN

[3] = Half-life was determined in monkey after 3 mg/kg of i.v. dose; type: ADME, organism-based; design: dose 3 mg/kg, route intravenous; conditions: cercopithecidae, in vivo, iv
[4] = tested on: B16; assay: Maximal effective dose against growth of B16 melanoma cells implanted subcutaneously in flank of mice; type: functional, Mus musculus
[5] = Volume of distribution was determined in dog after a 3 mg/kg of iv dose; type: ADME, organism-based, Canis lupus familiaris; design: dose 3 mg/kg, route intravenous; conditions: in vivo, read-out: V
[6] = tested on: Rattus norvegicus; assay: Plasma clearance value was determined in rat after a 3 mg/kg of iv dose; type: ADME, organism-based; design: dose 3 mg/kg, route intravenous; conditions: in vivo
[7] = Volume of distribution was determined in rat after a 3 mg/kg of iv dose; type: ADME, organism-based; design: dose 3 mg/kg, route intravenous; conditions: in vivo, read-out: V
[8] = Volume of distribution was determined in monkey after a 3 mg/kg of iv dose; type: ADME, organism-based; design: dose 3 mg/kg, route intravenous; conditions: cercopithecidae, in vivo, read-out: V
[9] = Half-life was determined in dog after a3 mg/kg of iv dose; type: ADME, organism-based, Canis lupus familiaris; conditions: in vivo, 3 mg/kg
[10] = Area under curve was determined in rat after a 3 mg/kg of oral dose; type: ADME, organism-based; design: dose 3 mg/kg, route oral; conditions: in vivo
[11] = target: Stromelysin-1 (Homo sapiens, UniProt P08254); assay: Inhibition of Matrix metalloprotease-3
Sequence of Stromelysin-1 (P08254 whole entry): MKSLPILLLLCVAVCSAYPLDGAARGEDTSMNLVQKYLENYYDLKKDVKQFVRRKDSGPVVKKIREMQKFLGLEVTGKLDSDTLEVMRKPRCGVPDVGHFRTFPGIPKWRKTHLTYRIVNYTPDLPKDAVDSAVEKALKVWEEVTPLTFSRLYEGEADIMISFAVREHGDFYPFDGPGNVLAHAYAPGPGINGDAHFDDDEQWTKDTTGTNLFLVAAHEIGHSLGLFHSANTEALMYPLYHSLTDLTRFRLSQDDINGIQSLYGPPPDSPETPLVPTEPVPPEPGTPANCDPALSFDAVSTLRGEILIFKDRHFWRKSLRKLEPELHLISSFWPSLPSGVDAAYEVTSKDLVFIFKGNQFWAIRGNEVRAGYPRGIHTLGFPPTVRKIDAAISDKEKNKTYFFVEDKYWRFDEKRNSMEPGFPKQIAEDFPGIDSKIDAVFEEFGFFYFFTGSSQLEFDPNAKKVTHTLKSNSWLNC

[12] = Absolute bioavailability was evaluated in rat; type: ADME, organism-based; conditions: in vivo
[13] = Area under curve was determined in monkey after a 3 mg/kg of oral dose; type: ADME, organism-based; design: dose 3 mg/kg, route oral; conditions: cercopithecidae, in vivo
[14] = tested on: Mus musculus; assay: Increase in life span corresponding to 6.5 day delay to 1 g tumor weight at 100 mg/kg of oral dose in mice; type: functional; conditions: 156 h
[15] = target: T2, Matrilysin (Homo sapiens, UniProt P09237); assay: Inhibition of Matrix metalloprotease-7
T2 sequence (P09237 whole entry): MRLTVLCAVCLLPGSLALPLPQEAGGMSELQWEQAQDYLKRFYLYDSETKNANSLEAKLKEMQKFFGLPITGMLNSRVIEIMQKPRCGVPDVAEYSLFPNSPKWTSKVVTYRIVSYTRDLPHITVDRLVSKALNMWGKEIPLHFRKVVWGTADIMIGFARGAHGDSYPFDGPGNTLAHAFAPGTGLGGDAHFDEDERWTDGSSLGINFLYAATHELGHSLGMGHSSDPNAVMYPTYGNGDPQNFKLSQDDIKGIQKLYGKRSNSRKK

[16] = Absolute bioavailability was evaluated in monkey; type: ADME, organism-based; conditions: cercopithecidae, in vivo
[17] = Absolute bioavailability was evaluated in dog; type: ADME, organism-based, Canis lupus familiaris; conditions: in vivo
[18] = target: Matrix metalloproteinase-9 (Homo sapiens, UniProt P14780); assay: Inhibition of matrix metalloprotease-9
Sequence of Matrix metalloproteinase-9 (P14780 whole entry): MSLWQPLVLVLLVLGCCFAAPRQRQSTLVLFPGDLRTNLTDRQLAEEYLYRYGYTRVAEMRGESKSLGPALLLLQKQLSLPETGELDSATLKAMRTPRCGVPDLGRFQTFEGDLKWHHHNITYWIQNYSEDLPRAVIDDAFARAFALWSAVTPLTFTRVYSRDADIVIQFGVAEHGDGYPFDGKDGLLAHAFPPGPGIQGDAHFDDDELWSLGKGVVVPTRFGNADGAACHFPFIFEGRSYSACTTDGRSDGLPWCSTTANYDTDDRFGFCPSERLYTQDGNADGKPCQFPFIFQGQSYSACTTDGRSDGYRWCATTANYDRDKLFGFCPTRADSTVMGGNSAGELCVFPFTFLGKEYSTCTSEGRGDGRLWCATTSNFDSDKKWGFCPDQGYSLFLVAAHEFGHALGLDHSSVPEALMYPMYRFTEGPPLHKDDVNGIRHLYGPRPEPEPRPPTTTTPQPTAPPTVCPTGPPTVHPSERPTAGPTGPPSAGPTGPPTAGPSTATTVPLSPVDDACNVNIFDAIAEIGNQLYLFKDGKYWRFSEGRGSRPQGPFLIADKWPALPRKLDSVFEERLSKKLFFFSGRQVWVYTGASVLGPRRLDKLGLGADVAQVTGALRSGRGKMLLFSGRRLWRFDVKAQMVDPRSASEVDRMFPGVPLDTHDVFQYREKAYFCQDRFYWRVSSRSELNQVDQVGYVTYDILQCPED

[19] = Plasma clearance value was determined in monkey after a 3 mg/kg of iv dose; type: ADME, organism-based; design: dose 3 mg/kg, route intravenous; conditions: cercopithecidae, in vivo
[20] = tested on: Canis familiaris; assay: Plasma clearance value was determined in dog after a 3 mg/kg of iv dose; type: ADME, organism-based, Canis lupus familiaris; design: dose 3 mg/kg, route intravenous; conditions: in vivo
[21] = Area under curve was determined in dog after a 3 mg/kg of oral dose; type: ADME, organism-based, Canis lupus familiaris; design: dose 3 mg/kg, route oral; conditions: in vivo

Sequence of 72 kDa type IV collagenase (P08253 whole entry): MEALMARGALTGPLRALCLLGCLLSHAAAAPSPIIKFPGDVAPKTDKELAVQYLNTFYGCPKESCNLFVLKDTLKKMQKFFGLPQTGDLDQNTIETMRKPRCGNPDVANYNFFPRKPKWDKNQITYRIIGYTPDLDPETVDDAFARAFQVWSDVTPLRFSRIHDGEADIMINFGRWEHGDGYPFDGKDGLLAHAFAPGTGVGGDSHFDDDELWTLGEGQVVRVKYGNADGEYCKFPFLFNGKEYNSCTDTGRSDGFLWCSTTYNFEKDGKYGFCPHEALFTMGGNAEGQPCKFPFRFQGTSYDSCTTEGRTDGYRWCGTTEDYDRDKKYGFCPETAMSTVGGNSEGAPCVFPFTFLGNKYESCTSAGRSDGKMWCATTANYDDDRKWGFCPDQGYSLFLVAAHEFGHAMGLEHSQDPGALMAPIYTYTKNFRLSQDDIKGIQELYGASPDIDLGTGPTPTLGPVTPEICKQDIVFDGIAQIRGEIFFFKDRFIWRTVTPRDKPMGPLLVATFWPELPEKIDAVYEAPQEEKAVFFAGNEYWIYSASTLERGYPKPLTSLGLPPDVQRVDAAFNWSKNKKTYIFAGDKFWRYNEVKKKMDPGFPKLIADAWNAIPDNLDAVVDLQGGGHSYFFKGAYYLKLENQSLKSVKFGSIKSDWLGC

| Structure (SMILES) | IC50 [1] | IC50 [2] | also measured |
| --- | --- | --- | --- |
| CC1(C)NC(=O)N(CC(COc2ccc(-c3ccc(S(C)(=O)=O)cc3)cc2)N(O)C=O)C1=O (stereo not drawn) | 48 nM | 4900 nM | half-life [3]: 5 h |
| CN1C(=O)N(CC(COc2ccc(-c3ccc(C#N)cc3)cc2)N(O)C=O)C(=O)C1(C)C (stereo not drawn) | 58 nM |  |  |
| CN1C(=O)N(CC(COc2ccc(-c3ccccc3)cc2)N(O)C=O)C(=O)C1(C)C (stereo not drawn) | 89 nM | 1100 nM |  |
| C=Cc1ccc(-c2ccc(OCC(CN3C(=O)N(C)C(C)(C)C3=O)N(O)C=O)cc2)cc1 (stereo not drawn) | 61 nM | > 10000 nM |  |
| CCCOc1ccc(-c2ccc(OCC(CN3C(=O)NC(C)(C)C3=O)N(O)C=O)cc2)cc1 (stereo not drawn) | 4 nM | > 10000 nM | half-life [3]: 1 h |
| CC1(C)NC(=O)N(CC(COc2ccc(-c3ccc(C(F)(F)F)cc3)cc2)N(O)C=O)C1=O (stereo not drawn) | 20 nM | 840 nM |  |
| CCCCCOc1ccc(-c2ccc(OCC(CN3C(=O)NC(C)(C)C3=O)N(O)C=O)cc2)cc1 (stereo not drawn) | 26 nM | > 10000 nM |  |
| CN1C(=O)N(CC(COc2ccc(-c3cccc(C#N)c3)cc2)N(O)C=O)C(=O)C1(C)C (stereo not drawn) | 1300 nM | > 10000 nM |  |
| CC1(C)NC(=O)N(C[C@@H](COc2ccc(-c3ccc(OC(F)(F)F)cc3)cc2)N(O)C=O)C1=O | 4 nM | 4600 nM | Effective dose [4]: 300 mg/kg; Vd [5]: 0.9 L/kg; Clp [6]: 2 mL/min/kg; Vd [7]: 1.2 L/kg; Vd [8]: 1.2 L/kg; half-life [9]: 9 h; AUC [10]: 24000 ng·h/mL; IC50 [11]: 42 nM; bioavailability [12]: 93%; AUC [13]: 43000 ng·h/mL; ILS at 100 mg/kg [14]: 46%; IC50 [15]: > 10000 nM; bioavailability [16]: 95%; bioavailability [17]: 83%; IC50 [18]: 120 nM; Clp [19]: 1.13 mL/min/kg; Clp [20]: 1.83 mL/min/kg; T1/2 [3]: 8 h and 21 h; AUC [21]: 23000 ng·h/mL |
| CCOc1ccc(-c2ccc(OCC(CN3C(=O)NC(C)(C)C3=O)N(O)C=O)cc2)cc1 (stereo not drawn) | 1 nM | 1000 nM |  |
| CN1C(=O)N(CC(COc2ccc(-c3cccs3)cc2)N(O)C=O)C(=O)C1(C)C (stereo not drawn) | 130 nM | 3600 nM |  |
| CN1C(=O)N(CC(COc2ccc(-c3ccco3)cc2)N(O)C=O)C(=O)C1(C)C (stereo not drawn) | 85 nM | 1600 nM |  |
| CC1(C)NC(=O)N(CC(COc2ccc(-c3ccc(C#N)cc3)cc2)N(O)C=O)C1=O (stereo not drawn) | 8 nM | 2100 nM | half-life [3]: 8 h |
| CN1C(=O)N(CC(COc2ccc(-c3cccnc3)cc2)N(O)C=O)C(=O)C1(C)C (stereo not drawn) | > 10000 nM | > 10000 nM |  |
| Cc1ccc(-c2ccc(OCC(CN3C(=O)N(C)C(C)(C)C3=O)N(O)C=O)cc2)cc1 (stereo not drawn) | 20 nM | 1600 nM |  |
| COc1ccc(-c2ccc(OCC(CN3C(=O)N(C)C(C)(C)C3=O)N(O)C=O)cc2)cc1 (stereo not drawn) | 4 nM |  |  |
| COCCOc1ccc(-c2ccc(OCC(CN3C(=O)NC(C)(C)C3=O)N(O)C=O)cc2)cc1 (stereo not drawn) | 4 nM | > 10000 nM | half-life [3]: 1 h |
| CN1C(=O)N(CC(COc2cccc(-c3ccc(C#N)cc3)c2)N(O)C=O)C(=O)C1(C)C (stereo not drawn) | > 10000 nM | > 10000 nM |  |
| CC1(C)NC(=O)N(C[C@H](COc2ccc(-c3ccc(OC(F)(F)F)cc3)cc2)N(O)C=O)C1=O | 180 nM | > 10000 nM | IC50 [11]: 3100 nM; IC50 [15]: > 10000 nM; IC50 [18]: 1200 nM |
| CCCCc1ccc(-c2ccc(OCC(CN3C(=O)NC(C)(C)C3=O)N(O)C=O)cc2)cc1 (stereo not drawn) | 16 nM | > 10000 nM | half-life [3]: 1 h |
| CC1(C)NC(=O)N(CC(COc2ccc(-c3ccc(OC(F)(F)F)cc3)cc2)N(O)C=O)C1=O (stereo not drawn) | 6 nM | 8600 nM | half-life [3]: 20 h |
